The structures appear in SMILES notation. Read-outs that look alike come from different tables or passages of the source.

Series [1] deals with pAKT-S473 in PC-3 cells (TORC2). Description: Cellular p-AKT (ser473) AlphaScreen assay in PC-3 cells (TORC2 activity). The series is classed as cell-based, human. To be noted: for IC50: read-out: pAKT S473 Cell IC50. Here is the method:
The target product profile for 1 and the next-generation analogs described here was for a dual inhibitor against both TORC1 and TORC2.
(§1) FRAP1 (mTOR) recombinant protein and GFP-4E-BP1 were purchased from Invitrogen (Carlsbad, CA, US).
(§2) The kinase activity assay was conducted in 50 mM Hepes buffer containing 10 mM MgCl2, 0.01% Brij, 0.2 mM EDTA, 2 mM DTT and 1% DMSO (after compound addition) at pH 7.3.
(§3) The IC50 value for each compound was determined in the presence of compound (various concentrations, from 0 to 10 μM) and a fixed amount of ATP (50 μM, final concentration), substrate GFP-4E-BP1 (400 nM, final concentration). The enzymatic reaction was initiated by adding FRAP1 (mTOR) (2 nM, final concentration). The assay was conducted at room temperature (~22 °C). After 30 min, the enzymatic reaction was stopped using Tb-anti-p4E-BP1 (2 nM final concentration, Invitrogen) and EDTA (20 mM final concentration, Sigma) in TR-FRET dilution buffer provided by Invitrogen. All the reagents were dispensed using a Multidrop Combi reagent dispenser (ThermoFisher Scientific, Waltham, […]
The release of product was detected using a BMG PHERAstar plate reader (BMG LABTECH, Ortenberg, Germany) and the Lantha Screen module (337 nm excitation wavelength) and measuring the ratio of fluorescence 520/490 nm (emission wavelengths). Experimental data was fitted using Eq. (1):
Vi and Vo are the rates of the enzyme activity in the presence and in the absence of inhibitor; n is the Hill coefficient; I is the free inhibitor concentration; IC 50 is a measure of potency that is equivalent to a […]
Cellular p-AKT (ser473) assay in PC-3 cells
PC-3 cells (PTEN deleted, human prostate cell line) were maintained in F12K media with 10% heat-inactivated fetal bovine serum (FBS) in 37 °C, 5% CO2 incubator. This method describes the procedure […]
from Perkin Elmer (catalog# TGRAS500). On day 1, 50,000 PC-3 cells were plated in 160 µL complete […]
Plates were placed in 37 °C, 5%
CO2 incubator for 24 h. On day 2, all media was removed and replaced with 160 µL starvation media which is F12K media (no FBS) and 0.1% BSA. Plates are placed in 37 °C, 5% CO2 incubator for 16 h. On day 3, compounds were both solubilized and serially diluted in DMSO and added to a secondary plate containing starvation media. 40 µL of compound/starvation media were added to the 160 µL in cell plate and plates were placed back in the incubator for 1 h. Cells were then activated by adding 22 µL FBS (for a final concentration of 10% FBS) for 10 min in the incubator. Media was removed from the well and cells were lysed in 100 µL SureFire kit lysis buffer and then shake n for 15 min at 900 rpm. AlphaScreen […]
assay was performed according to manufacturer’s instructions. 4 µL of lysate was added to PerkinElmer 96-well Proxiplate then 5 µL of Reaction Buffer plus Activation Buffer. Plates were shaken for 2 h at room temperature. 2 µL of Donor Beads in Dilution Buffer were added to the plate and the plate was shaken for 2 h at room temperature. The plate was read using BMG Labtech PHERAstar using AlphaScreen settings. Each analog was run in duplicate wells and a single IC50 value was calculated in […]
A general note: Alpha assays give light when donor and acceptor beads are brought close together.

In series [2] the target is T1, FRAP1 (mTOR) recombinant protein (Homo sapiens, UniProt P42345).
T1 construct: purchased Invitrogen (Carlsbad, CA, US)
T1 sequence (P42345 1360-2549 limits assumed): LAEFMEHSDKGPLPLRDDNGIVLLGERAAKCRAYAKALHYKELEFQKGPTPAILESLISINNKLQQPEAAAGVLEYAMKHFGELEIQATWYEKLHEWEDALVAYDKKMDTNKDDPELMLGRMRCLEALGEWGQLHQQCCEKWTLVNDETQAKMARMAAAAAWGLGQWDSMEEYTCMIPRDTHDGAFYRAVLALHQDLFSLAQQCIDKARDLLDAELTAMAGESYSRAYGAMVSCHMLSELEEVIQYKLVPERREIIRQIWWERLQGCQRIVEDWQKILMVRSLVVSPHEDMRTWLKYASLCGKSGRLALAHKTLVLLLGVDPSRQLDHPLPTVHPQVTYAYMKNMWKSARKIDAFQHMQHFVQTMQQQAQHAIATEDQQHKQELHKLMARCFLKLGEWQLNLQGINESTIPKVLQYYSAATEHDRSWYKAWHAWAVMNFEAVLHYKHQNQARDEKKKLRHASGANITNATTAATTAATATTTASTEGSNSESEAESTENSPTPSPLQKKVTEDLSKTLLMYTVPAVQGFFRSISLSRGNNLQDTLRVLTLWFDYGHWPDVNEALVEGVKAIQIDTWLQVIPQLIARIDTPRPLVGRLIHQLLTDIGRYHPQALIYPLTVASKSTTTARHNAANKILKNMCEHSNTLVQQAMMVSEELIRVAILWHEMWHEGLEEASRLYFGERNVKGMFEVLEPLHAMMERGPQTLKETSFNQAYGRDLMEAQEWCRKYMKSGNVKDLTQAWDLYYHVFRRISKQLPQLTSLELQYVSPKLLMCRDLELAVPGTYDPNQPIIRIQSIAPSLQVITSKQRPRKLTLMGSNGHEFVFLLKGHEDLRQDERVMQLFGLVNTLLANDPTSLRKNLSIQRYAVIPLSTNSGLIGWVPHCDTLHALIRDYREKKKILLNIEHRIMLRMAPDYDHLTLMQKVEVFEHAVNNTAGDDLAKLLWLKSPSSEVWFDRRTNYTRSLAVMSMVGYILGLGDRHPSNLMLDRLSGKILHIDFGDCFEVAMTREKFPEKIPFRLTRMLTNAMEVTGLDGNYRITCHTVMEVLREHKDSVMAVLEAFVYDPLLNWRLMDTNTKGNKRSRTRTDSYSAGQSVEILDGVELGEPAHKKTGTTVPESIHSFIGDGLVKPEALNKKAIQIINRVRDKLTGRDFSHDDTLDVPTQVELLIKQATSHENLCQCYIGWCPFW
Description: mTOR kinase inhibition assay (TR-FRET, GFP-4E-BP1). To be noted: enzyme. Type of series: biochemical. Here is the method: as §1, §2, §3
The release of product was detected using a BMG PHERAstar plate reader (BMG LABTECH, Ortenberg, Germany) and the Lantha Screen module (337 nm excitation wavelength) and measuring the ratio of fluorescence 520/490 nm (emission wavelengths). Experimental data was fitted using Eq. (1): […]
(In general: Time-resolved FRET reads energy transfer from a long-lived donor to a nearby acceptor.)

The next series relates to mouse xenograft models. Description: Mouse xenograft models (earlier efficacy of lead 1). Type of series: in vivo. To be noted: 10 and 30 mpk.
The target in series [3] is human ether-a-go-go (hERG) (Homo sapiens, UniProt Q12809). Briefly: hERG patch clamp. Type of series: cell-based. In general terms: hERG is a cardiac potassium channel; its block is linked to QT prolongation.
Sequence of human ether-a-go-go (hERG) (Q12809 whole entry): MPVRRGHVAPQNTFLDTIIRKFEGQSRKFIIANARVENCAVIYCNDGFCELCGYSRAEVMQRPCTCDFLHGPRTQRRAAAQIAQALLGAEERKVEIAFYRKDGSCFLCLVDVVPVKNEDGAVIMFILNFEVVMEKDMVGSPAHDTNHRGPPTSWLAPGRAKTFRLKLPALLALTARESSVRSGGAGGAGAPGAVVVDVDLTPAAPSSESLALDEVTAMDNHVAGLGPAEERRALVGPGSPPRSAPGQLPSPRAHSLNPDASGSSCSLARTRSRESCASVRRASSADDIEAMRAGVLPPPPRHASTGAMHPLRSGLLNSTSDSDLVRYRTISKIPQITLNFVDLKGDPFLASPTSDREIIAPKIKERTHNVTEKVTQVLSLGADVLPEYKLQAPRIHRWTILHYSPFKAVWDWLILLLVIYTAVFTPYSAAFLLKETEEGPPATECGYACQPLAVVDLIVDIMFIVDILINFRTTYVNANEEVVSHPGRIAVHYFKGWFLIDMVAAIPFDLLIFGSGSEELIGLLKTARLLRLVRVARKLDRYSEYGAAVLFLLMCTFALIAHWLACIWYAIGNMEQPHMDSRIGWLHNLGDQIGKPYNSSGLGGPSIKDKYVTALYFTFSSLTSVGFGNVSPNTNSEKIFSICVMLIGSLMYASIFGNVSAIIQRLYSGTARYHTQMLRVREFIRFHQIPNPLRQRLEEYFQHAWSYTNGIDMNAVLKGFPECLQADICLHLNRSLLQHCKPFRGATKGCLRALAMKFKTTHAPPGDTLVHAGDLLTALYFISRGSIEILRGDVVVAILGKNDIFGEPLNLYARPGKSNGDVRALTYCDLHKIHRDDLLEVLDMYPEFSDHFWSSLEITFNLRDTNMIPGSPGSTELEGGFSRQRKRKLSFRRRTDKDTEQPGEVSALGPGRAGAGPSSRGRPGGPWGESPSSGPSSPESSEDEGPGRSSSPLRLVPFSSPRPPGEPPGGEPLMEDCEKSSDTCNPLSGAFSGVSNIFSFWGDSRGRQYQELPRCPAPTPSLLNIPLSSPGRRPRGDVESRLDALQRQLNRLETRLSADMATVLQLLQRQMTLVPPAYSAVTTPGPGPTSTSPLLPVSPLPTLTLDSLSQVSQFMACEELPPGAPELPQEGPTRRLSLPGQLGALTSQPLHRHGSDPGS
A short description of series [4]: Ames test with and without S9. Type of series: cell-based. To be noted: with and without S9 activation.
The subject of a further series is PI3Kβ. Briefly: PI3Kβ selectivity. Type of series: biochemical.
Another series has as its system PI3Kδ. Briefly: PI3Kδ selectivity. The series is classed as biochemical.
In another series the test system is PI3Kγ. Description: PI3Kγ selectivity. Type of series: biochemical.
In series [5] the test system is interleukin-1 receptor-associated kinase 4 (IRAK1). Briefly: Kinase panel (Invitrogen) at 1 μM, IRAK1. The series is classed as biochemical.
Series [6] concerns the target T2, cyclin-dependent kinase 9 (CDK9) (Homo sapiens, UniProt P50750).
T2 construct: purchased Invitrogen
Description: Kinase panel (Invitrogen) at 1 μM, CDK9. The series is classed as biochemical.

For a further series, the target named is T3, DNA-PK (Homo sapiens, UniProt P78527).
T3 construct: purchased Invitrogen
Description: DNA-PK inhibition (Invitrogen). The series is classed as biochemical.

The next series deals with panel of 298 kinases. Description: Panel of 298 kinases (Invitrogen). Type of series: biochemical. To be noted: 298 kinases tested at 1 μM.
[7] abbreviates: Homo sapiens, PC-3, PC-3 cell line.
Setting [8] is: Homo sapiens, p-AKT S473, PC-3 cells, mean of N runs, read-out: Cell pEC50 (converted).

T2 sequence (P50750 whole entry): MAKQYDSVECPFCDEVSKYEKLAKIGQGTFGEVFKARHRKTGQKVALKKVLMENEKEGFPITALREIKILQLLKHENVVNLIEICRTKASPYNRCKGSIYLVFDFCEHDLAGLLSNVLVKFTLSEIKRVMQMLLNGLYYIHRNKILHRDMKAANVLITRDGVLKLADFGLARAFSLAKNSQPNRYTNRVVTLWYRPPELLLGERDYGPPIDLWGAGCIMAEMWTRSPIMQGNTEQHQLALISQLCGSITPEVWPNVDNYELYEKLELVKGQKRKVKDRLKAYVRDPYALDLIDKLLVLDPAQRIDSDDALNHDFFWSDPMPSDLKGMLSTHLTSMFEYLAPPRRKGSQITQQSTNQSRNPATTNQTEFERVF
T2 sequence (O60563 whole entry partner): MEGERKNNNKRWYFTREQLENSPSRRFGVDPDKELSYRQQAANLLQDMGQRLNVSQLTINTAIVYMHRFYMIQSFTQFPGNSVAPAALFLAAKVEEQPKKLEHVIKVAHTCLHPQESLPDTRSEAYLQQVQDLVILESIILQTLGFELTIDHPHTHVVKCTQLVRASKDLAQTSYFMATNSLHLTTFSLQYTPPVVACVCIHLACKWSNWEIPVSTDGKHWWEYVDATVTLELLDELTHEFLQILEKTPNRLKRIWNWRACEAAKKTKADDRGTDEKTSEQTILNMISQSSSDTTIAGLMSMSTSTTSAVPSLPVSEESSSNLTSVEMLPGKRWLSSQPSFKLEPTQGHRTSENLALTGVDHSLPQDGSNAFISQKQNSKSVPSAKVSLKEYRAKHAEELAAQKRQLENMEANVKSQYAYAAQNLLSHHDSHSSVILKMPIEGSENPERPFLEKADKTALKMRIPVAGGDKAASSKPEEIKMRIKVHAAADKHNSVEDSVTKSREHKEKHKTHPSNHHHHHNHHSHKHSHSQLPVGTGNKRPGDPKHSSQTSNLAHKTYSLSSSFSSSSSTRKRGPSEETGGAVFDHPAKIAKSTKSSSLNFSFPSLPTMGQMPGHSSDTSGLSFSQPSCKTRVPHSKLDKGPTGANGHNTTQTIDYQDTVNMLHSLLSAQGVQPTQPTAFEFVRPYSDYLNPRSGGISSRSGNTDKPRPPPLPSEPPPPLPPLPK

With `CC(F)(F)CN1C(=O)[C@]2(C)COCCN2c2nc(-c3ccc(NC(=O)NC4CC4)cc3)ncc21` [compound 1], the IC50 is 70 nM in series [1] (setting [7]) and 12 nM in series [2]. Moreover, the EC50 in series [1] (Homo sapiens, PC-3, Figure 1 profile, read-out: cell EC50) is 70 nM; in series [1] (setting [8]), 70.8 nM. The In vivo efficacy result in the series with mouse xenograft models is given as “significant in vivo efficacy”.

`C[C@@]12COCCN1c1nc(-c3cccc4[nH]ccc34)ncc1N([C@H]1CC[C@H](O)CC1)C2=O` [14c]: the IC50 in series [1] (setting [7]) is 10 nM; in [1] (PC-3 cell line), 13 nM; in series [3] it was > 40000 nM. The EC50 in [1] (setting [8]) is 12.6 nM. The Ames test entry in series [4] is given as “negative”. The “Selectivity against PI3Kβ” value in the series with PI3Kβ turned out to be 180 ×. Besides, the “Selectivity against PI3Kδ” value in the series on PI3Kδ stood at 6 ×. The “Selectivity against PI3Kγ” value in the series with PI3Kγ was 180 ×. In addition, the IRAK1 inhibition in [5] was found to be 22%. Besides, the inhibition at 1 µM in series [6] is 34%; at DNA-PK, 13%. Moreover, the Kinase panel selectivity entry in the series on panel of 298 kinases was “only two had inhibition >20%”.

A word on the IC50: it is the concentration needed to halve the response being measured. What is called inhibition is the percentage by which the read-out fell short of the control. Low values mean little suppression, high ones strong suppression.
